From patent US20090069565A1, “NEW INDOLE DERIVATIVES AS FACTOR XA INHIBITORS” (priority 2001, published 2009)
Read-outs that look alike come from different tables or passages of the source.

Target: human factor Xa (Homo sapiens, UniProt P00742)
Assay: Factor Xa assay (chromogenic, substrate S-2765);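 further: purified enzyme preincubated with inhibitor for 10 min before substrate addition, final reaction volume 100 µl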
Assay type: biochemical
Details: read-out: Ki(FXa)
[1] = inhibition constant for factor Xa, purified enzyme 0.5 nM, substrate S-2765 140 μM, 25° C., pH 7.8, Ki=IC50/{1+(substrate concentration/Km)}

human factor Xa, sequence (P00742 235-488 limits assumed): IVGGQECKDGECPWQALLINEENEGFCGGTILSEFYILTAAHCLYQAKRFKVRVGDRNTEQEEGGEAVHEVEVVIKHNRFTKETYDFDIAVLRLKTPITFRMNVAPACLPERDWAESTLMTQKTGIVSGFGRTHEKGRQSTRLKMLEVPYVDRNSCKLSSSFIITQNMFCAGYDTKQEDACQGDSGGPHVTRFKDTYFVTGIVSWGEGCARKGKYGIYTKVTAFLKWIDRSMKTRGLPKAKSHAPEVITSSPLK
human factor Xa, sequence (P00742 41-179 partner limits assumed): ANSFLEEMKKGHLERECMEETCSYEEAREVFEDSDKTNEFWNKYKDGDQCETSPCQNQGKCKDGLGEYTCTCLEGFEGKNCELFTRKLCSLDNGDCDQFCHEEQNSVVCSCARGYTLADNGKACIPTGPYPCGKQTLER

Row | Compound | Ki | Ki [1]
1 | CC(C)N1CCC(NC(=O)c2cc3ccccc3n2CC(=O)Nc2ccc(Cl)cc2)CC1 [Example 248, 1-[(4-chloro-phenylcarbamoyl)-methyl]-1H-indole-2-carboxylic acid (1-isopropyl-piperidin-4-yl)-amide] | – | 0.003 µM
2 | CC(C)N1CCC(NC(=O)c2cc3ccccc3n2CC(=O)Nc2ccc(Cl)s2)CC1 [Example 249, 1-[(5-chloro-thiophen-2-ylcarbamoyl)-methyl]-1H-indole-2-carboxylic acid (1-isopropyl-piperidin-4-yl)-amide] | – | 0.015 µM
3 | CC(C)N1CCC(NC(=O)c2cc3ccccc3n2CC(=O)Nc2ccc(Cl)cc2F)CC1 [Example 250, 1-[(4-chloro-2-fluoro-phenylcarbamoyl)-methyl]-1H-indole-2-carboxylic acid (1-isopropyl-piperidin-4-yl)-amide] | 0.031 µM | –
4 | O=C(Cn1c(C(=O)NCC2CCN(c3ccncc3)CC2)cc2ccccc21)Nc1ccc(Cl)cc1 [Example 252, 1-[(4-chloro-phenylcarbamoyl)-methyl]-1H-indole-2-carboxylic acid (3,4,5,6-tetrahydro-2H-[1,4′]bipyridinyl-4-ylmethyl)-amide] | 0.23 µM | –
5 | O=C(Cn1c(C(=O)NC2CCN(c3ccncc3)CC2)cc2ccccc21)Nc1ccc(Cl)cc1 [Example 253, 1-[(4-chloro-phenylcarbamoyl)-methyl]-1H-indole-2-carboxylic acid (3,4,5,6-tetrahydro-2H-[1,4′]bipyridinyl-4-yl)-amide] | 0.34 µM | –
6 | O=C(Cn1c(C(=O)N2CCC(Nc3ccncc3)CC2)cc2ccccc21)Nc1ccc(Cl)cc1 [Example 254, N-(4-chloro-phenyl)-2-{2-[4-(pyridin-4-ylamino)-piperidine-1-carbonyl]-indol-1-yl}-acetamide] | 0.223 µM | –
7 | O=C(Cn1c(C(=O)NC2CCN(C3CC3)CC2)cc2ccccc21)Nc1ccc(Cl)cc1 [Example 255, 1-[(4-chloro-phenylcarbamoyl)-methyl]-1H-indole-2-carboxylic acid (1-cyclopropyl-piperidin-4-yl)-amide] | 0.106 µM | –
8 | O=C(Cn1c(C(=O)N2CCC(N3CCCC3)CC2)cc2ccccc21)Nc1ccc(Cl)cc1 [Example 256, N-(4-chloro-phenyl)-2-[2-(4-pyrrolidin-1-yl-piperidine-1-carbonyl)-indol-1-yl]-acetamide] | 0.754 µM | –
9 | CC(C)N1CCC(NC(=O)c2cc3cc([N+](=O)[O-])ccc3n2CC(=O)Nc2ccc(Cl)cc2)CC1 [Example 257, 1-[(4-chloro-phenylcarbamoyl)-methyl]-5-nitro-1H-indole-2-carboxylic acid (1-isopropyl-piperidin-4-yl)-amide] | 0.006 µM | –
10 | N#CCN1CCC(NC(=O)c2cc3ccccc3n2Cc2cc(-c3ccc(Cl)s3)on2)CC1 [Example 259, 1-[5-(5-chloro-thiophen-2-yl)-isoxazol-3-ylmethyl]-1H-indole-2-carboxylic acid (1-cyanomethyl-piperidin-4-yl)-amide] | 0.772 µM | –
11 | O=C(NC1CCN(CCO)CC1)c1cc2ccccc2n1Cc1cc(-c2ccc(Cl)s2)on1 [Example 260, 1-[5-(5-chloro-thiophen-2-yl)-isoxazol-3-ylmethyl]-1H-indole-2-carboxylic acid [1-(2-hydroxy-ethyl)-piperidin-4-yl]-amide] | – | 0.131 µM
12 | O=C(NC1CCN(Cc2ncc[nH]2)CC1)c1cc2ccccc2n1Cc1cc(-c2ccc(Cl)s2)on1 [Example 264, 1-[5-(5-chloro-thiophen-2-yl)-isoxazol-3-ylmethyl]-1H-indole-2-carboxylic acid [1-(1H-imidazol-2-ylmethyl)-piperidin-4-yl]-amide] | 0.559 µM | –
13 | Cn1ccnc1CN1CCC(NC(=O)c2cc3ccccc3n2Cc2cc(-c3ccc(Cl)s3)on2)CC1 [Example 265, 1-[5-(5-chloro-thiophen-2-yl)-isoxazol-3-ylmethyl]-1H-indole-2-carboxylic acid [1-(1-methyl-1H-imidazol-2-ylmethyl)-piperidin-4-yl]-amide] | 0.404 µM | –

Second part, the compound after the results:

Row | Ki | Ki [1] | Compound
14 | 0.004 µM | – | CC(C)N1CCC(NC(=O)c2cc3c(C(=O)O)cccc3n2Cc2cc(-c3ccc(Cl)s3)on2)CC1 [Example 246, 1-[5-(5-Chloro-thiophen-2-yl)-isoxazol-3-ylmethyl]-2-(1-isopropyl-piperidin-4-ylcarbamoyl)-1H-indole-4-carboxylic acid]
15 | 0.024 µM | – | CC(C)N1CCC(NC(=O)c2cc3cc(C(N)=O)ccc3n2Cc2cc(-c3ccc(Cl)s3)on2)CC1 [Example 247, 1-[5-(5-Chloro-thiophen-2-yl)-isoxazol-3-ylmethyl]-1H-indole-2,5-dicarboxylic acid 5-amide 2-[(1-isopropyl-piperidin-4-yl)-amide]]
16 | 0.011 µM | – | CC(C)N1CCC(NC(=O)c2cc3c(Cl)c(N)ccc3n2Cc2cc(-c3ccc(Cl)s3)on2)CC1 [Example 258, 5-amino-4-chloro-1-[5-(5-chloro-thiophen-2-yl)-isoxazol-3-ylmethyl]-1H-indole-2-carboxylic acid (1-isopropyl-piperidin-4-yl)-amide]
17 | 0.139 µM | – | COCCN1CCC(NC(=O)c2cc3ccccc3n2Cc2cc(-c3ccc(Cl)s3)on2)CC1 [Example 261, 1-[5-(5-chloro-thiophen-2-yl)-isoxazol-3-ylmethyl]-1H-indole-2-carboxylic acid [1-(2-methoxy-ethyl)-piperidin-4-yl]-amide]
18 | 0.25 µM | – | NC(=O)CN1CCC(NC(=O)c2cc3ccccc3n2Cc2cc(-c3ccc(Cl)s3)on2)CC1 [Example 262, 1-[5-(5-chloro-thiophen-2-yl)-isoxazol-3-ylmethyl]-1H-indole-2-carboxylic acid (1-carbamoylmethyl-piperidin-4-yl)-amide]
19 | 0.58 µM | – | CNC(=O)CN1CCC(NC(=O)c2cc3ccccc3n2Cc2cc(-c3ccc(Cl)s3)on2)CC1 [Example 263, 1-[5-(5-chloro-thiophen-2-yl)-isoxazol-3-ylmethyl]-1H-indole-2-carboxylic acid (1-methylcarbamoylmethyl-piperidin-4-yl)-amide]
20 | 0.891 µM | – | NCC(=O)N1CCC(NC(=O)c2cc3ccccc3n2Cc2cc(-c3ccc(Cl)s3)on2)CC1 [Example 267, 1-[5-(5-chloro-thiophen-2-yl)-isoxazol-3-ylmethyl]-1H-indole-2-carboxylic acid [1-(2-amino-acetyl)-piperidin-4-yl]-amide]
21 | 0.042 µM | – | CCOC(=O)OC(C)OC(=O)c1ccc2c(c1)cc(C(=O)NC1CCN(C(C)C)CC1)n2Cc1cc(-c2ccc(Cl)s2)on1 (stereo not shown) [Example 268, 1-[5-(5-Chloro-thiophen-2-yl)-isoxazol-3-ylmethyl]-2-(1-isopropyl-piperidin-4-ylcarbamoyl)-1H-indole-5-carboxylic acid 1-ethoxycarbonyloxy-ethyl ester]
22 | 0.007 µM | – | CCOC(=O)OC(C)OC(=O)c1cccc2c1cc(C(=O)NC1CCN(C(C)C)CC1)n2Cc1cc(-c2ccc(Cl)s2)on1 (stereo not shown) [Example 269, 1-[5-(5-Chloro-thiophen-2-yl)-isoxazol-3-ylmethyl]-2-(1-isopropyl-piperidin-4-ylcarbamoyl)-1H-indole-4-carboxylic acid 1-ethoxycarbonyloxy-ethyl ester]
23 | 0.013 µM | – | CC(C)N1CCC(NC(=O)c2cc3c(C(=O)OCOC(=O)C(C)(C)C)cccc3n2Cc2cc(-c3ccc(Cl)s3)on2)CC1 [Example 270, 1-[5-(5-Chloro-thiophen-2-yl)-isoxazol-3-ylmethyl]-2-(1-isopropyl-piperidin-4-ylcarbamoyl)-1H-indole-4-carboxylic acid 2,2-dimethyl-propionyloxymethyl ester]
24 | 0.092 µM | – | CC(OC(=O)c1ccc2c(c1)cc(C(=O)NC1CCN(C(C)C)CC1)n2Cc1cc(-c2ccc(Cl)s2)on1)OC(=O)C(C)(C)C (stereo not shown) [Example 271, 1-[5-(5-Chloro-thiophen-2-yl)-isoxazol-3-ylmethyl]-2-(1-isopropyl-piperidin-4-ylcarbamoyl)-1H-indole-5-carboxylic acid 1-(2,2-dimethyl-propionyloxy)-ethyl ester]
25 | 0.017 µM | – | CC(OC(=O)c1cccc2c1cc(C(=O)NC1CCN(C(C)C)CC1)n2Cc1cc(-c2ccc(Cl)s2)on1)OC(=O)C(C)(C)C (stereo not shown) [Example 272, 1-[5-(5-Chloro-thiophen-2-yl)-isoxazol-3-ylmethyl]-2-(1-isopropyl-piperidin-4-ylcarbamoyl)-1H-indole-4-carboxylic acid 1-(2,2-dimethyl-propionyloxy)-ethyl ester]
